Assay results from patent publication US20020142436A1, “Human adenylate cyclase and use therefor” (priority 1995, published 2002).
Blank lines part the entries; values can stand above or below the compound they belong to. Square brackets hold non-standard residues; d marks the D form. Ends that are not written are not given here. Peptide text beside a SMILES is read from it. ξ: configuration not given here. ξNMeBmt = C/C=C/C[C@@H](C)[C@@H](O)C(NC)C(=O)O; NMeL = CN[C@@H](CC(C)C)C(=O)O; NMeV = CN[C@H](C(=O)O)C(C)C; Abu = CC[C@H](N)C(=O)O; Sar = CNCC(=O)O

Experiments:
AtT20 cells [1] = experiment: CRF-induced cAMP accumulation in AtT20 cells; format: cell-based, mouse; details: for cAMP response to CRF after lowering intracellular free Ca2+: EGTA 2 mmol/l, nimodipine 1 μmol/l, BAPTA-AM 20 μmol/l in preincubation, IBMX 0.5 mmol/l; for CRF-induced cAMP formation: 1 μmol/l FK506, 10 nmol/l CRF, calcium-depleted cells
Procedure: Experiments for cAMP were all carried out in Hanks balanced salt solution containing 2 mM CaCl2 and 1 mM MgSO4 buffered with 25 mM HEPES pH 7.4 and supplemented with 0.25% (w/v) of bovine serum albumin. The cells were preincubated in serum free medium for 1 hour, after which blockers of phosphosdiesterase (isobutylmethylxanthine 0.5 mM (IBMX) and/or rolipram 0.1 mM) along with various other treatments were applied for 30 minutes at 37° C. Subsequently the cells were cooled to 22° C. for 5 minutes in a water bath and agonists were added for 10 minutes. The reaction was stopped by the addition of 0.2 mol/l HCl to achieve a final concentration of 0.1 mol/l (Brooker et al, (1979) Adv. in Cyclic Nucl. Res. Vol. 10, G. Brooker, P. Greengard and G. A. Robinson, Raven Press, New York, 2-34).
In some experiments cells were preincubated for 30 minutes in medium containing 2 mmol/l EGTA and no added Ca^2+, supplemented with 5 μmol/l A23187 and 2.5 μmol/l nifedipine in order to deplete rapidly mobilized cellular stores of Ca^2+. […] The rationale for this pretreatment is that calcineurin reportedly influences L-channel activity (Lai et al, (1993) J. Neurochem. 61:1333-1339; and Armstrong et al, (1987) Proc. Natl. Acad. Sci. U.S.A. 84:2518-2522), whereas the treatment regimen used here would make Ca^2+ entry independent of this regulation.
These compounds were made up in ethanol at 10^−3 mol/l and diluted with the incubation medium to the desired final concentrations. In some cases cells were preincubated with L685,818 the structural analogue of FK506 that binds to FKBP-12 and inhibits prolyl-isomerase activity but is devoid of immunosuppressant activity (Dumont et al, (1992) J. Exp. Med. 176:751-760) for 10 minutes before the addition of FK506 for 30 minutes at 37° C.

AtT20 cells [2] = experiment: forskolin-evoked cAMP accumulation in AtT20 cells; format: cell-based, mouse
Procedure: The cells were preincubated in serum free medium for 1 hour, after which blockers of phosphosdiesterase (isobutylmethylxanthine 0.5 mM (IBMX) and/or rolipram 0.1 mM) along with various other treatments were applied for 30 minutes at 37° C. Subsequently the cells were cooled to 22° C. for 5 minutes in a water bath and agonists were added for 10 minutes. […] Res. Vol. 10, G. Brooker, P. Greengard and G. A. Robinson, Raven Press, New York, 2-34).

AtT20 cells [3] = experiment: cAMP accumulation induced by β-adrenergic stimulation (isoproterenol) in AtT20 cells; format: cell-based, mouse
[4] = tested on: HEK293 cells transfected with AC; experiment: cAMP in HEK293 cells transiently transfected with AC; format: cell-based, human; details: FK506 2 μmol/l, L-685,818 100 μmol/l; 1 mmol/l IBMX, 0.1 mmol/l rolipram
AtT20 cells [5] = experiment: ACTH release by AtT20 cells; format: cell-based, mouse
[6] = tested on: T1, GST fusion protein of the FKBP12 like domain (residues 594-611) of mouse AC
T1 sequence: IDDSRESSGPRGQGTASP

[7] = isoproterenol 2 nmol/l, pretreatment FK506 1 μmol/l or BAPTA/AM 20 μmol/l, IBMX 0.5 mmol/l, rolipram 0.1 mmol/l
[8] = isoproterenol 10 nmol/l, pretreatment FK506 1 μmol/l or BAPTA/AM 20 μmol/l, IBMX 0.5 mmol/l, rolipram 0.1 mmol/l
[9] = isoproterenol 1000 nmol/l, pretreatment FK506 1 μmol/l or BAPTA/AM 20 μmol/l, IBMX 0.5 mmol/l, rolipram 0.1 mmol/l

Compound: CNc1ccc2oc(C[C@H]3O[C@@]4(CC[C@H]3C)O[C@H]([C@H](C)C(=O)c3ccc[nH]3)[C@H](C)C[C@H]4C)nc2c1C(=O)O [A23187]
cAMP response to CRF after lowering intracellular free Ca2+ (AtT20 cells [1]): markedly increased the cAMP response to CRF

Compound: CC(=O)OCOC(=O)CN(CC(=O)OCOC(C)=O)c1ccccc1OCCOc1ccccc1N(CC(=O)OCOC(C)=O)CC(=O)OCOC(C)=O [BAPTA-AM, [1,2-bis-(o-Aninophenoxy)-ethane-N,N,N′,N′-tetraacetic acid tetra-(acetoxymethyl)-ester]]
cAMP response to CRF after lowering intracellular free Ca2+ (AtT20 cells [1]): markedly increased the cAMP response to CRF
enhancement of forskolin-evoked cAMP accumulation (AtT20 cells [2]; cells loaded with BAPTA-AM): 15%
isoproterenol induced cAMP formation (AtT20 cells [3]): enhanced
cAMP accumulation (AtT20 cells [3]; isoproterenol 0.4 nmol/l, pretreatment FK506 1 μmol/l or BAPTA/AM 20 μmol/l, IBMX 0.5 mmol/l, rolipram 0.1 mmol/l): 0.96 ± 0.06
cAMP accumulation (AtT20 cells [3]; [7]): 3.6 ± 0.6
cAMP accumulation (AtT20 cells [3]; [8]): 11.4 ± 0.9
cAMP accumulation (AtT20 cells [3]; isoproterenol 100 nmol/l, pretreatment FK506 1 μmol/l or BAPTA/AM 20 μmol/l, IBMX 0.5 mmol/l, rolipram 0.1 mmol/l): 35.5 ± 3.4
cAMP accumulation (AtT20 cells [3]; [9]): 46.9 ± 9

Compound: O=C(O)CN(CCOCCOCCN(CC(=O)O)CC(=O)O)CC(=O)O [EGTA]
cAMP response to CRF after lowering intracellular free Ca2+ (AtT20 cells [1]): markedly increased the cAMP response to CRF

EC50 (AtT20 cells [1]; Mus musculus, AtT20, read-out: apparent EC50 to augment cAMP accumulation induced by CRF): ~10 nM
EC50 (AtT20 cells [5]; Mus musculus, AtT20, read-out: apparent EC50 to stimulate ACTH release): ~10 nM
Compound: C=CC[C@@H]1/C=C(\C)C[C@H](C)C[C@H](OC)[C@H]2O[C@@](O)(C(=O)C(=O)N3CCCC[C@H]3C(=O)O[C@H](/C(C)=C/[C@@H]3CC[C@@H](O)[C@H](OC)C3)[C@H](C)[C@@H](O)CC1=O)[C@H](C)C[C@@H]2OC [FK506]
CRF-induced cAMP formation (AtT20 cells [1]; extracellular free Ca2+ 0 mmol/l, 0.5 mmol/l IBMX): 10.3 ± 0.10 pmol/well
CRF-induced cAMP formation (AtT20 cells [1]; extracellular free Ca2+ 0.5 mmol/l, 0.5 mmol/l IBMX): 10.0 ± 0.11 pmol/well
CRF-induced cAMP formation (AtT20 cells [1]; extracellular free Ca2+ 1.0 mmol/l, 0.5 mmol/l IBMX): 10.4 ± 0.10 pmol/well
CRF-induced cAMP formation (AtT20 cells [1]; extracellular free Ca2+ 1.5 mmol/l, 0.5 mmol/l IBMX): 11.3 ± 0.13 pmol/well
CRF-induced cAMP formation (AtT20 cells [1]; extracellular free Ca2+ 2.0 mmol/l, 0.5 mmol/l IBMX): 9.5 ± 0.11 pmol/well
unstimulated cAMP levels [4]: 3 fold
cAMP accumulation evoked by forskolin (AtT20 cells [2]; 10 or 30 μM forskolin): no significant effect
cAMP accumulation (AtT20 cells [3]; [7]): 3.3 ± 0.7
cAMP accumulation (AtT20 cells [3]; [8]): 15.3 ± 2.5
cAMP accumulation (AtT20 cells [3]; [9]): 45.3 ± 9

Compound: CC(C)NCC(O)c1ccc(O)c(O)c1 (centres unmarked) [Isoproterenol]
cAMP accumulation (AtT20 cells [3]; isoproterenol 0.4 nmol/l, no pretreatment): 0.7 ± 0.04
cAMP accumulation (AtT20 cells [3]; isoproterenol 2 nmol/l, no pretreatment): 2.0 ± 0.08
cAMP accumulation (AtT20 cells [3]; isoproterenol 10 nmol/l, no pretreatment): 9.5 ± 0.33
cAMP accumulation (AtT20 cells [3]; isoproterenol 100 nmol/l, no pretreatment): 19.5 ± .5
cAMP accumulation (AtT20 cells [3]; isoproterenol 1000 nmol/l, no pretreatment): 32.1 ± 0.5

Compound: C/C=C/C[C@@H](C)[C@@H](O)C1C(=O)N[C@@H](CC)C(=O)N(C)CC(=O)N(C)[C@@H](C(C)C)C(=O)N[C@@H](C(C)C)C(=O)N(C)[C@@H](CC(C)C)C(=O)N[C@@H](C)C(=O)N[C@H](C)C(=O)N(C)[C@@H](CC(C)C)C(=O)N(C)[C@@H](CC(C)C)C(=O)N(C)[C@@H](C(C)C)C(=O)N1C (some centres unmarked) [MeVal^4-cyclosporin A] (cyclo(A[dA][NMeL][NMeL][NMeV][ξNMeBmt][Abu][Sar][NMeV]V[NMeL]))
CRF-induced cAMP production (AtT20 cells [1]; 10 nmol/l CRF, 0.5 mmol/l IBMX, drug preincubated 30 minutes): enhanced CRF-induced cAMP production in a concentration dependent manner

Compound: CRF: hypothalamic neuropeptide corticotropin-releasing factor (SEEPPISLDLTFHLLREVLEMARAEQLAQQAHSNRKLMEII; ends and bridges not checked; UniProt P06850 154-194, looked up)
cAMP level in the presence of CRF (AtT20 cells [1]; 10 nmol/l CRF (FIG. 3A)): 12 pmol/well*10minutes
increment of cAMP caused by CRF (AtT20 cells [1]; 10 nmol/l CRF, 0.5 mmol/l isobutylmethylxanthine (FIG. 1)): 6.1 pmol/well
CRF-stimulated ACTH release (AtT20 cells [5]; FIG. 7A, value taken as 100%): 22±1 fmol/well*30 minutes

Compound: cAMP dependent protein kinase
phosphorylation of the cyclase portion of the GST fusion protein [6]: can be phosphorylated by cAMP dependent protein kinase

Compound: calcineurin (protein phosphatase 2B), as used on the GST fusion protein
dephosphorylation of the cyclase portion of the GST fusion protein [6]: dephosphorylated in a calcium dependent manner by calcineurin

Compound: pertussis toxin
suppression of CRF-induced cAMP formation by extracellular Ca2+ (AtT20 cells [1]; Ca2+-depleted cells, pertussis toxin treatment): had no effect on the suppression of CRF-induced cAMP formation by extracelluar Ca^2+
inhibitory G-protein function (somatostatin-mediated inhibition of cAMP formation) (AtT20 cells [1]; pertussis toxin 1 μg/ml): strongly suppressed inhibitory G-protein function
